Patent publication EP3020415A1, “Thiol compounds for use in bacterial infections” (Université de Fribourg, priority 2014, dated 2016)
Several values for one entry are separate records, joined by “and”; a condition that tells them apart may be missing. Identical values can stand only once. Like-named read-outs stand apart in the source and are kept apart here.

Tests used:
KPC-3 = KPC-3 (Klebsiella pneumoniae, UniProt Q9F663, H272Y); assay: In-vitro inhibition of purified enzyme, non-metallo-enzyme negative control
NDM-1 = NDM-1 (Klebsiella pneumoniae, UniProt C7C422); assay: biochemical
VIM-1 = VIM-1 (Pseudomonas aeruginosa, UniProt A0A0F7KYQ8); assay: biochemical
NDM-4 = NDM-4 (Escherichia coli, UniProt H6WZS9); assay: In-vitro inhibition of purified metallo-ß-lactamase, UV spectrophotometry
IMP-1 = IMP-1 (Serratia marcescens, UniProt P52699); assay: biochemical
[1] = in vivo, cited from earlier work
[2] = test system: E. coli TOP10 pCR2.1-(PNDM-1-blaNDM-1-bleMBL); assay: Preliminary MIC of imipenem with DMPS, broth microdilution; type: cell-based; conditions: MIC values of imipenem; 0 to 30 mM of DMPS; zinc-complemented M9CA medium; data not shown
K. pneumoniae OXA-48 = assay: MIC of carbapenems with or without DMPS (non-MBL control); type: cell-based; conditions: K. pneumoniae OXA-48 (control), carbapenem without DMPS, Zn 5mg/L
Description: (§1) DMPS was evaluated as inhibitor of MBLs using a panel of strains producing the most clinically significant carbapenemases of the metallo-enzyme group. Minimum inhibitory concentrations (MICs) of carbapenems were determined in-vitro with strains (reference and clinical) producing main types of class B carbapenemases which are IMP, VIM, NDM, GIM and SPM with or without DMPS at various concentrations. […] The studied strains were clinical isolates (to mirror multidrug resistance in clinical isolates) for which a precise ß-lactamase gene content is known (Table 1). The strains were NDM, VIM-, IMP, SPM and GIM and producers as well as control of a non-MBL producer (OXA-48). The selected concentration of DMPS was 1-fold, […] and 30-fold (3 mM) that of the human peak serum concentration after a single IV dose of DMPS (Aposhian,1983).
(§2) A 100 mM DMPS stock solution (Sigma Aldrich, France) (pH 5.0) was prepared in 0.2 M NaOH as recommended (Maiorino et al. 1990) and pH was neutralized to pH 7.0 with NaHCO3 Na2Ca-EDTA (Sigma Aldrich, France) dissolved in water.

C. freundii VIM-2 = assay: MIC of carbapenems with or without DMPS; type: cell-based; conditions: Zn 5mg/L
Description: as §1, §2

K. pneumoniae IMP-4 = assay: MIC of carbapenems with or without DMPS; type: cell-based; conditions: Zn 5mg/L
Description: as §1, §2

P. aeruginosa VIM-1 = assay: MIC of carbapenems with or without DMPS; type: cell-based
Description: as §1, §2

P. aeruginosa GIM-1 = assay: MIC of carbapenems with or without DMPS; type: cell-based; conditions: Zn 5mg/L
Description: as §1, §2

P. aeruginosa NDM1 = assay: MIC of carbapenems with or without DMPS; type: cell-based; conditions: carbapenem without DMPS, Zn 5mg/L
Description: as §1, §2

P. aeruginosa VIM-2 = assay: MIC of carbapenems with or without DMPS; type: cell-based; conditions: Zn 5mg/L
Description: as §1, §2

K. pneumoniae NDM-1 = assay: MIC of carbapenems with or without DMPS; type: cell-based; conditions: Zn 5mg/L
Description: as §1, §2

A. baumannii NDM-1 = assay: MIC of carbapenems with or without DMPS; type: cell-based
Description: as §1, §2

E. coli NDM-4 = assay: MIC of carbapenems with or without DMPS; type: cell-based; conditions: Zn 5mg/L
Description: as §1, §2

E. cloacae GIM-1 = assay: MIC of carbapenems with or without DMPS; type: cell-based; conditions: Zn 5mg/L
Description: as §1, §2

K. pneumoniae IMP-8 = assay: MIC of carbapenems with or without DMPS; type: cell-based; conditions: Zn 5mg/L
Description: as §1, §2

K. pneumoniae VIM-4 = assay: MIC of carbapenems with or without DMPS; type: cell-based; conditions: Zn 5mg/L
Description: as §1, §2

P. aeruginosa IMP-13 = assay: MIC of carbapenems with or without DMPS; type: cell-based
Description: as §1, §2

E. coli NDM-1 = assay: MIC of carbapenems with or without DMPS; type: cell-based; conditions: Zn 5mg/L
Description: as §1, §2

E. coli NDM-5 = assay: MIC of carbapenems with or without DMPS; type: cell-based; conditions: Zn 5mg/L
Description: as §1, §2

P. putida VIM-2 = assay: MIC of carbapenems with or without DMPS; type: cell-based; conditions: Pseudomonas putida, VIM2
Description: as §1, §2

P. aeruginosa SPM1 = assay: MIC of carbapenems with or without DMPS; type: cell-based; conditions: Pseudomonas aeruginosa, carbapenem without DMPS, Zn 5mg/L
Description: as §1, §2

A. baumannii IMP-4 = assay: MIC of carbapenems with or without DMPS; type: cell-based; conditions: Acinetobacter baumannii, IMP4, carbapenem without DMPS, Zn 5mg/L
Description: as §1, §2

**Q.** With O=S(=O)([O-])CC(S)CS.[Na+] (racemic) [DMPS] as the molecule, how does the IC50 (KPC-3) read?
**A.** > 10 mM

**Q.** And the IC50 (NDM-1)?
**A.** 80 µM

**Q.** What about the IC50 (VIM-1) of the same molecule?
**A.** 180 µM

**Q.** What about the IC50 (NDM-4) of the same molecule?
**A.** 110 µM

**Q.** What about the IC50 (IMP-1) of the same molecule?
**A.** 70 µM

**Q.** What about the serum concentration ([1]; iv) of the same molecule?
**A.** ca. 110 µM

**Q.** And the elimination [1]?
**A.** mostly eliminated by urines

**Q.** And the “maximal inhibition efficiency (DMPS concentration)” value [2]?
**A.** 50 mM

**Q.** Which MIC (K. pneumoniae OXA-48) does the source give for C[C@@H](O)[C@H]1C(=O)N2C(C(=O)O)=C(S[C@@H]3CN[C@H](C(=O)N(C)C)C3)[C@H](C)[C@H]12 [MEM, meropenem] here?
**A.** 32 µg/mL

**Q.** And the MIC (C. freundii VIM-2; carbapenem without DMPS)?
**A.** 0.06 µg/mL

**Q.** And the MIC (K. pneumoniae IMP-4; carbapenem without DMPS)?
**A.** 16 µg/mL

**Q.** And the MIC (P. aeruginosa VIM-1; P. aeruginosa VIM-1, carbapenem without DMPS, Zn 5mg/L)?
**A.** 256 µg/mL

**Q.** And the MIC (P. aeruginosa GIM-1; carbapenem without DMPS)?
**A.** 1,024 µg/ml

**Q.** And the MIC (P. aeruginosa NDM1)?
**A.** 256 µg/mL

**Q.** And the MIC (P. aeruginosa VIM-2; carbapenem without DMPS)?
**A.** 1,024 µg/ml

**Q.** What about the MIC (K. pneumoniae NDM-1; carbapenem without DMPS) of the same molecule?
**A.** 64 µg/mL

**Q.** And the MIC (A. baumannii NDM-1; A. baumannii NDM-1, carbapenem without DMPS, Zn 5mg/L)?
**A.** 256 µg/mL

**Q.** And the MIC (E. coli NDM-4; carbapenem without DMPS)?
**A.** 64 µg/mL

**Q.** What about the MIC (E. cloacae GIM-1; carbapenem without DMPS) of the same molecule?
**A.** 16 µg/mL

**Q.** And the MIC (K. pneumoniae IMP-8; carbapenem without DMPS)?
**A.** 2 µg/mL

**Q.** And the MIC (K. pneumoniae VIM-4; carbapenem without DMPS)?
**A.** 32 µg/mL

**Q.** And the MIC (P. aeruginosa IMP-13; P. aeruginosa IMP-13, carbapenem without DMPS, Zn 5mg/L)?
**A.** 64 µg/mL

**Q.** What about the MIC (E. coli NDM-1; carbapenem without DMPS) of the same molecule?
**A.** 32 µg/mL and 16 µg/mL

**Q.** And the MIC (E. coli NDM-5; carbapenem without DMPS)?
**A.** 64 µg/mL

**Q.** With C[C@@H](O)[C@H]1C(=O)N2C(C(=O)O)=C(SCCN=CN)C[C@H]12 [IPM, imipenem] as the molecule, how does the MIC (K. pneumoniae OXA-48; Klebsiella pneumoniae, OXA48, read-out: MIC) read?
**A.** 32 µg/mL

**Q.** And the MIC (C. freundii VIM-2; Citrobacter freundii, VIM2, carbapenem without DMPS, read-out: MIC)?
**A.** 2 µg/mL

**Q.** What about the MIC (K. pneumoniae IMP-4; Klebsiella pneumoniae, IMP4, carbapenem without DMPS, read-out: MIC) of the same molecule?
**A.** 16 µg/mL

**Q.** What about the MIC (P. putida VIM-2) of the same molecule?
**A.** 128 µg/mL

**Q.** What about the MIC (P. aeruginosa VIM-1; Pseudomonas aeruginosa, VIM1) of the same molecule?
**A.** 128 µg/mL

**Q.** And the MIC (P. aeruginosa GIM-1; Pseudomonas aeruginosa, GIM1, carbapenem without DMPS, read-out: MIC)?
**A.** > 1020 µg/mL

**Q.** What about the MIC (P. aeruginosa SPM1) of the same molecule?
**A.** 1020 µg/mL

**Q.** And the MIC (P. aeruginosa NDM1; Pseudomonas aeruginosa, read-out: MIC)?
**A.** 1020 µg/mL

**Q.** And the MIC (P. aeruginosa VIM-2; Pseudomonas aeruginosa, VIM2, carbapenem without DMPS, read-out: MIC)?
**A.** 1020 µg/mL

**Q.** What about the MIC (K. pneumoniae NDM-1; Klebsiella pneumoniae, NDM1, carbapenem without DMPS, read-out: MIC) of the same molecule?
**A.** 64 µg/mL

**Q.** And the MIC (A. baumannii NDM-1; Acinetobacter baumannii, NDM1)?
**A.** 128 µg/mL

**Q.** What about the MIC (E. coli NDM-4; Escherichia coli, NDM4, carbapenem without DMPS, read-out: MIC) of the same molecule?
**A.** 64 µg/mL

**Q.** And the MIC (E. cloacae GIM-1; Enterobacter cloacae, GIM1, carbapenem without DMPS, read-out: MIC)?
**A.** 8 µg/mL

**Q.** What about the MIC (K. pneumoniae IMP-8; Klebsiella pneumoniae, IMP8, carbapenem without DMPS, read-out: MIC) of the same molecule?
**A.** 8 µg/mL

**Q.** What about the MIC (K. pneumoniae VIM-4; Klebsiella pneumoniae, VIM4, carbapenem without DMPS, read-out: MIC) of the same molecule?
**A.** 64 µg/mL

**Q.** What about the MIC (P. aeruginosa IMP-13; Pseudomonas aeruginosa, IMP13) of the same molecule?
**A.** 128 µg/mL

**Q.** And the MIC (E. coli NDM-1; Escherichia coli, NDM1, carbapenem without DMPS, read-out: MIC)?
**A.** 8 µg/mL

**Q.** And the MIC (A. baumannii IMP-4)?
**A.** 64 µg/mL

**Q.** And the MIC (E. coli NDM-5; Escherichia coli, NDM5, carbapenem without DMPS, read-out: MIC)?
**A.** 64 µg/mL
